The text below walks through data of patent publication US20040204443A1, “Method for inducing pain relief using imidazo[1,2-a]pyridine derivatives” (priority 2003, published 2004).

The test system of data set [1] is intense, bilateral pain in both feet. Nature of the data set: Case report: patient with bilateral foot pain, oral drug treatment. The following applies: for decrease in pain: foot pain from stretched plantar fascia, earlier drug treatments. Type of data set: in vivo, human patient. As for the experimental part:
Additionally, the patient was treated with topical lidocaine and with a tens machine.

The conditions of data set [2]: has been reported; cited from earlier work.
For data set [3] the following is noted: may be eliminated more slowly in obese individuals; cited from earlier work.
In data set [4] the test system is pain in patient with metastatic cancer. Nature of the data set: Case report: second patient with metastatic cancer pain. Type of data set: in vivo, human patient. An excerpt: A second patient with metastatic cancer was also experiencing pain and had reported little or no relief from common analgesics.
For data set [5], the system named is intense, bilateral pain in both feet. The data set can be described thus: Case report: same foot-pain patient, topical application in a cream. Type of data set: in vivo, human patient. The following applies: applied topically in a cream.

As for `CN(C)CCC=C1c2ccccc2CCc2ccccc21` [Elavil, amitryptiline], the decrease in pain result in data set [1] (person) was “only the latter showing any decrease in pain”.

Regarding `NCC1(CC(=O)O)CCCCC1` [Neurontin], the decrease in pain result in data set [1] (person) was “only the latter showing any decrease in pain”.

`Nc1nnc(-c2cccc(Cl)c2Cl)c(N)n1` [Lamictal]: the decrease in pain result in data set [1] (person) is “only the latter showing any decrease in pain”.

With `Cc1ccc(-c2nc3ccc(C)cn3c2CC(=O)N(C)C)cc1` [AMBIEN, N,N,6-trimethyl-2-p-tolyl-imidazo[1,2-a]pyridine-3-acetamide], the “time in which metabolized” value in data set [2] was 6 to 8 h. For the same molecule, the “duration of pain abatement” value in data set [1] (obese person, 10 mg H.S.) is 12 to 14 h. Moreover, the “other foot pains (arch, heel, cuboid area)” value in data set [1] (person) is recorded as “ameliorated”. Moreover, in data set [1] (person, 10 mg H.S.), the effective dosage entry is listed as “about 0.08 mg per kg”. Moreover, the abatement of pain entry in data set [1] (person, 10 mg H.S., able to walk prior to retiring) was “noticeable abatement of pain”. The lipophilicity entry in data set [3] is given as “lipophilic”. Besides, the analgesic effect result in data set [4] is “marked analgesic effect”. Further, the “pain relief after topical application” value in data set [5] is recorded as “reported pain relief”.

Regarding `CC1(C)O[C@@H]2[C@@H](CO[C@@]3(COS(N)(=O)=O)OC(C)(C)O[C@@H]23)O1` [Topamax], the decrease in pain entry in data set [1] (person) is listed as “only the latter showing any decrease in pain”.

`COc1cccc(C2(O)CCCCC2CN(C)C)c1` (centres unmarked) [Ultram]: the decrease in pain entry in data set [1] (person) is given as “only the latter showing any decrease in pain”.

As for `CNCCC=C1c2ccccc2CCc2ccccc21` [Parmelar, nortryptiline], the decrease in pain result in data set [1] (person) is recorded as “only the latter showing any decrease in pain”.
